Test results published in the supplement of paper PMC12463676, “Small-molecule dissolution of stress granules by redox modulation benefits ALS models” (Nature Chemical Biology, 2025).

Key:
[1] = compound: O=[As]([O-])(O)O.[K+] [potassium arsenate]; assay: thermal stability z-score vs DMSO; higher = more thermally stabilized by treatment; conditions: HeLa; arsenate concentration 1 mM
Experimental: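 Cellular thermal proteome profiling in HeLa cells treated with 1 mM arsenate for 1 h (DMSO pretreatment), heated to ten temperatures (37-66.3 °C). Soluble protein was quantified by TMT mass spectrometry relative to DMSO controls; the thermal stability score was transformed to a z-score; mean of n = 3 experiments.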

[2] = compound: NC(=O)CCCCC1CCSS1 [lipoamide]; assay: as above; conditions: HeLa, lipoamide concentration 100 µM
Experimental: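 Cellular thermal proteome profiling in HeLa cells. Cells were treated with 100 µM lipoamide for 1 h, with or without 1 mM arsenate for a further 1 h, then heated to ten temperatures (37-66.3 °C), and soluble protein was quantified by TMT mass spectrometry relative to 0.1% DMSO controls. The thermal stability score (sum of log2 fold changes minus the abundance score) was transformed to a z-score; mean of n = 3 experiments.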

[3] = arsenate co-treatment: 1 mM arsenate 1 h
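Also: each temperature applied for 3 min, abundance score taken as mean log2 fold change at the two lowest temperatures, z-score obtained by mean subtraction and division by SD.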

Sequence of UniProt Q9P253 (Q9P253 whole entry): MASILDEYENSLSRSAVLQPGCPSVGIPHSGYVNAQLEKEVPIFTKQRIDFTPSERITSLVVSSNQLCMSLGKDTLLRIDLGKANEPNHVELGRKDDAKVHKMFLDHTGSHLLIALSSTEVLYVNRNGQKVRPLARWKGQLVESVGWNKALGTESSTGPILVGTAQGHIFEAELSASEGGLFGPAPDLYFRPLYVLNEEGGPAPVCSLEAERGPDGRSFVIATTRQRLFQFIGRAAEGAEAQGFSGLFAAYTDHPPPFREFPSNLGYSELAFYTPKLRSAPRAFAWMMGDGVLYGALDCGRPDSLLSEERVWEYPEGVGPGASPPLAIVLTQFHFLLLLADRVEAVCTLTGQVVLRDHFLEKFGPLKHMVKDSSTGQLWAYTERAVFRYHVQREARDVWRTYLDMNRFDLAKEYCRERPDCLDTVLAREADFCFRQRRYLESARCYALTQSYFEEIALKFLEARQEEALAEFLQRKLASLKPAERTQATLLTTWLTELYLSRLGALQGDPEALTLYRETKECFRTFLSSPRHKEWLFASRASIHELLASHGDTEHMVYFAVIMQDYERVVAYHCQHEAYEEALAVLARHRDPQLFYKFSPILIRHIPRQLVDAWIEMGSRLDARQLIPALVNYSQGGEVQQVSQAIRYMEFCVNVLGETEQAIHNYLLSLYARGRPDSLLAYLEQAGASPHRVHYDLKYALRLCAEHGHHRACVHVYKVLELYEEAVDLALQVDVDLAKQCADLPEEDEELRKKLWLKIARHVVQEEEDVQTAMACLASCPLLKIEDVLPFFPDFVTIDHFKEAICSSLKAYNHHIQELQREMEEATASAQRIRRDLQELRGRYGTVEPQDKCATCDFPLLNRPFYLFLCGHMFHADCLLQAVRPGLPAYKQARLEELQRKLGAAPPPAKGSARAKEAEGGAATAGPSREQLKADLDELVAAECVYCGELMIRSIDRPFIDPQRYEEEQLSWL
Sequence of UniProt P00505 (P00505 whole entry): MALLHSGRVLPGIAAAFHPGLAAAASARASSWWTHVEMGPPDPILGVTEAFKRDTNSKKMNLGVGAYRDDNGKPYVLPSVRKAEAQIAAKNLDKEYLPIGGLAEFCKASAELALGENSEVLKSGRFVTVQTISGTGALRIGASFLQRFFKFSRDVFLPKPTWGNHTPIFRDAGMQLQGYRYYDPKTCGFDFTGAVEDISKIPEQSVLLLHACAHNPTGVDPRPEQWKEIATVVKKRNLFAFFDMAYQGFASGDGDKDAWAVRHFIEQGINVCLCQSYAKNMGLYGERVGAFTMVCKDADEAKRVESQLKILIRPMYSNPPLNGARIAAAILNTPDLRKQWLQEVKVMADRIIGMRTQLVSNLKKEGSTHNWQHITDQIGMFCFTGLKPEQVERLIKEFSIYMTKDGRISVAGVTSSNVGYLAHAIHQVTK
Sequence of UniProt O75531 (O75531 whole entry): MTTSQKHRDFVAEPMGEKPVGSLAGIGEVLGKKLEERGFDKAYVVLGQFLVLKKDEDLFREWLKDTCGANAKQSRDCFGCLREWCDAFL
Sequence of UniProt P53041 (P53041 whole entry): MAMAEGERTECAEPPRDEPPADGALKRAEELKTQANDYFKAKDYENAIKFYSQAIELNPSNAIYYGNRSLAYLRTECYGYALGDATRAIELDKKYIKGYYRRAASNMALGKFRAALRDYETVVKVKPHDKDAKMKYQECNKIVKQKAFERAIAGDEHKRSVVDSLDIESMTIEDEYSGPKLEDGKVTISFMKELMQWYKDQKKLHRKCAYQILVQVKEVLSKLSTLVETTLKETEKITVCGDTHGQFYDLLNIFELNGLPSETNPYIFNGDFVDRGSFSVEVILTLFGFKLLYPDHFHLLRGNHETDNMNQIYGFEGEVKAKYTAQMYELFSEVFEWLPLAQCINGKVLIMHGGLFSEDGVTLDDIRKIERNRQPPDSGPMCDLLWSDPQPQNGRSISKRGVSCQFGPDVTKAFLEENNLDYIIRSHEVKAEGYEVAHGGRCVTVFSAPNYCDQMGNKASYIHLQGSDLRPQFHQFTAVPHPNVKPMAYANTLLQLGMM
Sequence of UniProt Q9NVC6 (Q9NVC6 whole entry): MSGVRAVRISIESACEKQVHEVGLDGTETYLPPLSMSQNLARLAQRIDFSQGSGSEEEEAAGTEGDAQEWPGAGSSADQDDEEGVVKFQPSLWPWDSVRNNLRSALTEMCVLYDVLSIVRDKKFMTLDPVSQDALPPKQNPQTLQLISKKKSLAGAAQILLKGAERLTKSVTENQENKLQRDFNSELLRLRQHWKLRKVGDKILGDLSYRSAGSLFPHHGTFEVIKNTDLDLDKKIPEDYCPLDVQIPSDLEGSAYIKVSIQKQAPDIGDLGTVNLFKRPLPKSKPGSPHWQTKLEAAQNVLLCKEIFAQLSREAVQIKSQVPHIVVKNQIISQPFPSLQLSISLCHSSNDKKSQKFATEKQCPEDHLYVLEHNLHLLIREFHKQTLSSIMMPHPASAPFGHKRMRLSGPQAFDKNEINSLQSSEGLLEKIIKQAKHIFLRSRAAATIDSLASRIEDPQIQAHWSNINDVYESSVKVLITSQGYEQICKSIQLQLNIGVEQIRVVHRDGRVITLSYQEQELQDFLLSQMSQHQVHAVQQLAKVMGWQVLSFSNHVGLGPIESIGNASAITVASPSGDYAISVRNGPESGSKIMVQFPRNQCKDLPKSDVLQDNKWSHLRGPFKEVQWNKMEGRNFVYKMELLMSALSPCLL
Sequence of UniProt Q8TB37 (Q8TB37 whole entry): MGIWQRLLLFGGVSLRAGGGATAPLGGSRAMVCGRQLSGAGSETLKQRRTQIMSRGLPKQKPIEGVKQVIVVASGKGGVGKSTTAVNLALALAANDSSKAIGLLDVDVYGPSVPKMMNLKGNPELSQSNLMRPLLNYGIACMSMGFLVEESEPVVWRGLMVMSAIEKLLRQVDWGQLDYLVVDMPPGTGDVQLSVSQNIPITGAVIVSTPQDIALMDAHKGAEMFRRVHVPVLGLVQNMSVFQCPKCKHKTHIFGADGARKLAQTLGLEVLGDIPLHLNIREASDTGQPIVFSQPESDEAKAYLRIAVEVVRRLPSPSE
Sequence of UniProt Q53HC9 (Q53HC9 whole entry): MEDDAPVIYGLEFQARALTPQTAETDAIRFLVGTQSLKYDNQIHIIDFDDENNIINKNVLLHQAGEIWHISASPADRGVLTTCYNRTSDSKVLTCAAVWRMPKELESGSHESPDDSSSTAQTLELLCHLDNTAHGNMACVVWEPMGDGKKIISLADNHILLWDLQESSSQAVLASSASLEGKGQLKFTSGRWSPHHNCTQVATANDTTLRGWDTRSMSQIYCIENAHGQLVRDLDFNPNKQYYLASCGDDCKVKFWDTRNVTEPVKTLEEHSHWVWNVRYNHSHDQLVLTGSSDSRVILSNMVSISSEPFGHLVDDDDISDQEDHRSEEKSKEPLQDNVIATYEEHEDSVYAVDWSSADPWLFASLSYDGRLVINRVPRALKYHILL
Sequence of UniProt Q9UBZ4 (Q9UBZ4 whole entry): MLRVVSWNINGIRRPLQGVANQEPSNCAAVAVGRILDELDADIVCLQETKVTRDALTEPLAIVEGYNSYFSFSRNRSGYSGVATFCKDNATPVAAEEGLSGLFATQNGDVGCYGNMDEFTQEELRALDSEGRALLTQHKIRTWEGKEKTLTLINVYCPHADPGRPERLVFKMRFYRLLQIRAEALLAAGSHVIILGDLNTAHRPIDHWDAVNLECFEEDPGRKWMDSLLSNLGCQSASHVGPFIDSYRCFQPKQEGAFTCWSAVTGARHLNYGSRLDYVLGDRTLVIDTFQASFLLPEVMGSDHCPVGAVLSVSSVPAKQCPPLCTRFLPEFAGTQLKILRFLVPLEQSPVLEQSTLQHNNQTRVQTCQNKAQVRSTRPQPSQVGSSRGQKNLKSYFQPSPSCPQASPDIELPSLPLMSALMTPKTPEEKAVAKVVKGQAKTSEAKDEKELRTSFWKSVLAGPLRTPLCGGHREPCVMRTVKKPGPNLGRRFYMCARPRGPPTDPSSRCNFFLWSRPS
Sequence of UniProt Q9UNX4 (Q9UNX4 whole entry): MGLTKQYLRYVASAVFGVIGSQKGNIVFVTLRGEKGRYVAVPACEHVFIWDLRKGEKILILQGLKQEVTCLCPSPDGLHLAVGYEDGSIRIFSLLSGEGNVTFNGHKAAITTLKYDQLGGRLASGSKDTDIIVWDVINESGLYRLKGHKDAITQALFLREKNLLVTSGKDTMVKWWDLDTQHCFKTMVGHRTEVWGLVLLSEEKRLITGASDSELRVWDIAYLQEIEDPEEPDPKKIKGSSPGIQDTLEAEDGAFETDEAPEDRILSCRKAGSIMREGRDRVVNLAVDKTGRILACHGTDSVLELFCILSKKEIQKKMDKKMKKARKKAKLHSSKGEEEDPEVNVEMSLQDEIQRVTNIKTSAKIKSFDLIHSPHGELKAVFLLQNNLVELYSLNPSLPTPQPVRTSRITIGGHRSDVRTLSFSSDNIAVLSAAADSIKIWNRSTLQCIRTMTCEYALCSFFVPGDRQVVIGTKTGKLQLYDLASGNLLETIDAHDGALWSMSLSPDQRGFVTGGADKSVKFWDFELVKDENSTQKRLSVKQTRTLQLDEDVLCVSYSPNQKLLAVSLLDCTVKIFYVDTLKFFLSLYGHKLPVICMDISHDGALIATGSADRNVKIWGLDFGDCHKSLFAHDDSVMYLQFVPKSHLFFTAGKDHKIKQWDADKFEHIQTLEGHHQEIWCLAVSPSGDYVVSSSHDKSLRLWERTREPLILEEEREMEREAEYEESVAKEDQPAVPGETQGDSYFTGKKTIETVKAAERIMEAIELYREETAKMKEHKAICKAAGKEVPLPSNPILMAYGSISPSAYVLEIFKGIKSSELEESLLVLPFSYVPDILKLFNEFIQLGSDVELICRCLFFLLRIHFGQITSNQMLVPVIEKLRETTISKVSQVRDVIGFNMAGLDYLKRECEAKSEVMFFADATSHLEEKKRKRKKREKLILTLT
Sequence of UniProt Q03393 (Q03393 whole entry): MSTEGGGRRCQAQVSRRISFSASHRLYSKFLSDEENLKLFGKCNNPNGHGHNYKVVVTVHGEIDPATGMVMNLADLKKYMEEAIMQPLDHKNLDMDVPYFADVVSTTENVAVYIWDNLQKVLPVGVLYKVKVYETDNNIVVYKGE

| Target | thermal stability z-score [1] | thermal stability z-score [2, 3] | thermal stability z-score ([2]; arsenate co-treatment: none) |
| --- | --- | --- | --- |
| TMEM189 (UniProt A5PLL7) | -0.167 | -0.772 | -0.595 |
| MBOAT7 (UniProt Q96N66) | -0.732 | -0.956 | -0.883 |
| HSD17B7 (UniProt P56937) | 1.82 | 0.202 | 0.543 |
| TRIP12 (UniProt Q14669) | 0.157 | -0.227 | -0.162 |
| LYPLA1 (UniProt O75608) | -0.862 | 0.624 | -0.159 |
| PTS (UniProt Q03393) | 0.981 | 0.382 | -0.301 |
| GOLM1 (UniProt Q8NBJ4) | -0.568 | 0.000985 | -0.136 |
| TXNL1 (UniProt O43396) | 7 | -0.206 | -0.576 |
| WDR3 (UniProt Q9UNX4) | -0.0987 | -0.031 | 0.0101 |
| SEC14L1 (UniProt Q92503) | -0.169 | -0.149 | -0.0215 |
| UNK (UniProt Q9C0B0) | -0.364 | 0.117 | 0.0195 |
| PITRM1 (UniProt Q5JRX3) | 2.58 | 0.579 | 0.327 |
| PRDX5 (UniProt P30044) | -0.761 | -0.275 | 0.138 |
| RPL23 (UniProt P62829) | -0.839 | 0.548 | -0.122 |
| NUBPL (UniProt Q8TB37) | -0.262 | -0.216 | -0.498 |
| VPS18 (UniProt Q9P253) | 0.788 | -0.401 | -0.805 |
| REPS2 (UniProt Q8NFH8) | -0.0535 | 0.13 | -0.0113 |
| DENND6A (UniProt Q8IWF6) | -0.387 | -0.149 | -0.836 |

| Target | thermal stability z-score [1] | thermal stability z-score [2, 3] | thermal stability z-score ([2]; arsenate co-treatment: none) |
| --- | --- | --- | --- |
| TSSC1 (UniProt Q53HC9) | -0.25 | 0.436 | -0.204 |
| TNS3 (UniProt Q68CZ2) | 1.32 | 0.341 | 0.204 |
| TEFM (UniProt Q96QE5) | 0.106 | 0.0966 | 0.0631 |
| APEX2 (UniProt Q9UBZ4) | -0.747 | 0.0959 | 0.209 |
| PPP5C (UniProt P53041) | 0.649 | 0.859 | 0.0455 |
| KLHL42 (UniProt Q9P2K6) | -0.142 | -0.26 | -0.0102 |
| CHMP3 (UniProt Q9Y3E7) | 0.291 | 0.271 | 0.481 |
| CSE1L (UniProt P55060) | 0.016 | 0.582 | 0.825 |
| NME7 (UniProt Q9Y5B8) | -0.13 | 0.000387 | 0.0484 |
| BANF1 (UniProt O75531) | -2.36 | 0.324 | -0.358 |
| NCLN (UniProt Q969V3) | 0.537 | -3.4 | -2.85 |
| POLR2B (UniProt P30876) | 0.205 | 0.77 | 0.769 |
| TPM2 (UniProt P07951) | -0.068 | 0.624 | 0.462 |
| GTF2F2 (UniProt P13984) | -0.198 | 0.00925 | -0.239 |
| GTPBP1 (UniProt O00178) | 0.493 | -0.325 | -0.107 |
| GOT2 (UniProt P00505) | -0.0952 | 0.218 | 0.18 |
| MED17 (UniProt Q9NVC6) | -0.697 | 0.255 | -0.466 |
| NACC1 (UniProt Q96RE7) | -0.423 | -0.376 | -0.495 |
